{"source": "patent US6372194B1", "about": "“MRI contrast media recognizing minor environmental changes” (Nihon Schering K.K., priority 1997, dated 2002)", "assay": "Proton relaxing times (T1, T2) and proton relaxivity, Minispec 20 MHz, 40° C.", "assay_type": "physicochemical", "conditions": "for T1 relaxing time / T2 relaxing time: 20 MHz, 40° C.", "description": "The proton relativity of poly[Gd(DTPA-PDA)2]35 and poly[Gd(DTPA-PDA)5]14 obtained in Example 1 was compared with that of conventional MRI contrast medium. As the conventional MRI contrast medium, used was Gd-DTPA (Magnevist). The proton relaxivity was determined by using Minispec (NMS 120/125/10VTS, manufactured by Japan Bruker) at frequency at 20 MHz and temperature at 40° C. T1 was determined using an IR (inversion recovery) method under the conditions of initial τ of 2 ms, τ magnification of 1.7 and determination points of 20. T2 was determined using a CPMG (Carr-Purcell-Meiboon-Gill) method under the conditions of τ of 1 ms and determination points of 50.\nRespective proton relaxing times (T1 and T2) are shown in Table 1, and the proton relaxivity (R1 and R2) calculated from said proton relaxing time are shown in Table 2.", "data": [{"molecule": "O=C([O-])CN(CCN(CC(=O)[O-])CC(=O)O)CCN(CC(=O)[O-])CC(=O)O.[Gd+3]", "note": "[Gd-DTPA]", "values": [{"measurement": "T1 relaxing time", "setting": "Gd concentration 0.1 mM", "result": 1503, "unit": "ms"}, {"measurement": "T2 relaxing time", "setting": "Gd concentration 0.1 mM", "result": 1339, "unit": "ms"}, {"measurement": "T1 relaxing time", "setting": "Gd concentration 1 mM", "result": 247, "unit": "ms"}, {"measurement": "T2 relaxing time", "setting": "Gd concentration 1 mM", "result": 220, "unit": "ms"}, {"measurement": "T1 relaxing time", "setting": "Gd concentration 5 mM", "result": 53, "unit": "ms"}, {"measurement": "T2 relaxing time", "setting": "Gd concentration 5 mM", "result": 47, "unit": "ms"}, {"measurement": "T1 relaxing time", "setting": "Gd concentration 10 mM", "result": 26, "unit": "ms"}, {"measurement": "T2 relaxing time", "setting": "Gd concentration 10 mM", "result": 24, "unit": "ms"}, {"measurement": "proton relaxivity R1", "setting": "calculated from proton relaxing time", "result": "3.81 1 mmol^−1 sec^−1"}]}]}
